Laboratory results as given in patent US6355799B1, “Substituted benzene compounds, process for their preparation, and herbicidal and defoliant compositions containing them” (ISK Americas Incorporated, priority 1997, dated 2002).

How the values were obtained:
Type in all cases: in vivo
[1] = tested on: velvetleaf (Abutilon theophrasti, ABUTH); test: Post-emerge test, greenhouse herbicide activity screening; conditions: rating scale 0-100 (0 no damage, 100 complete death), 14 days after application
Summary of the method: (§1)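 Compounds in acetone were track-sprayed at 187 l/ha, 15–1000 g ai/ha, onto sandy loam pots. Pre-emerge seeds were sown one day before spraying, with surface watering afterwards. Post-emerge plants were at the 2–3 leaf stage and sprayed with 0.25% v/v non-ionic surfactant. Injury was rated 0–100 at 14 days.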

[2] = tested on: johnsongrass (Sorghum halepense, SORHA); test: as above; conditions: rating scale 0-100 (0 no damage, 100 complete death), 14 days after application
Summary of the method: as §1

[3] = tested on: lambsquarters (Chenopodium album, CHEAL); test: as above; conditions: rating scale 0-100 (0 no damage, 100 complete death), 14 days after application
Summary of the method: as §1

[4] = tested on: sicklepod (Cassia obtusifolia, CASOB); test: as above; conditions: rating scale 0-100 (0 no damage, 100 complete death), 14 days after application
Summary of the method: as §1

[5] = tested on: ivyleaf morningglory (Ipomoea hederacea, IPOHE); test: as above; conditions: rating scale 0-100 (0 no damage, 100 complete death), 14 days after application
Summary of the method: as §1

[6] = tested on: green foxtail (Setaria viridis, SETVI); test: as above; conditions: rating scale 0-100 (0 no damage, 100 complete death), 14 days after application
Summary of the method: as §1

[7] = tested on: large crabgrass (Digitaria sanguinalis, DIGSA); test: as above; conditions: rating scale 0-100 (0 no damage, 100 complete death), 14 days after application
Summary of the method: as §1

[8] = tested on: barnyardgrass (Echinochloa crus-galli, ECHCG); test: as above; conditions: rating scale 0-100 (0 no damage, 100 complete death), 14 days after application
Summary of the method: as §1

[9] = tested on: redroot pigweed (Amaranthus retroflexus, AMARE); test: as above; conditions: rating scale 0-100 (0 no damage, 100 complete death), 14 days after application
Summary of the method: as §1

[10] = tested on: velvetleaf (Abutilon theophrasti, ABUTH); test: Pre-emerge test, greenhouse herbicide activity screening; conditions: rating scale 0-100, 14 days after application
Summary of the method: (§2)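 Herbicidal damage is scored 0 (none) to 100 (complete plant death) two weeks after a simulated field spray. Rates span 15–1000 g ai/ha, delivered in acetone at 187 l/ha. For post-emergence treatments, plants have 2–3 leaves and the spray carries 0.25% v/v non-ionic surfactant.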

[11] = tested on: johnsongrass (Sorghum halepense, SORHA); test: as above; conditions: rating scale 0-100, 14 days after application
Summary of the method: as §2

[12] = tested on: lambsquarters (Chenopodium album, CHEAL); test: as above; conditions: rating scale 0-100, 14 days after application
Summary of the method: as §2

[13] = tested on: common ragweed (Ambrosia artemisizfolia L., AMBEL); test: as above; conditions: rating scale 0-100, 14 days after application
Summary of the method: as §2

[14] = tested on: sicklepod (Cassia obtusifolia, CASOB); test: as above; conditions: rating scale 0-100, 14 days after application
Summary of the method: as §2

[15] = tested on: ivyleaf morningglory (Ipomoea hederacea, IPOHE); test: as above; conditions: rating scale 0-100, 14 days after application
Summary of the method: as §2

[16] = tested on: green foxtail (Setaria viridis, SETVI); test: as above; conditions: rating scale 0-100, 14 days after application
Summary of the method: as §2

[17] = tested on: large crabgrass (Digitaria sanguinalis, DIGSA); test: as above; conditions: rating scale 0-100, 14 days after application
Summary of the method: as §2

[18] = tested on: barnyardgrass (Echinochloa crus-galli, ECHCG); test: as above; conditions: rating scale 0-100, 14 days after application
Summary of the method: as §2

[19] = tested on: upland rice (Oryza sp., var. Tebonnet, RICE); test: Post-emerge test, crop safety; conditions: rating scale 0-100 (0 no damage, 100 complete death), 14 days after application
Summary of the method: as §2

[20] = tested on: field corn (Zea mays L., var. Dekalb 535, CORN); test: Post-emerge test, crop safety; conditions: rating scale 0-100 (0 no damage, 100 complete death), 14 days after application
Summary of the method: as §2

[21] = tested on: redroot pigweed (Amaranthus retroflexus, AMARE); test: Pre-emerge test, greenhouse herbicide activity screening; conditions: rating scale 0-100, 14 days after application
Summary of the method: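 Compounds in acetone were track-sprayed at 15-1000 g ai/ha (187 l/ha) on sandy loam pots: pre-emerge one day after seeding, post-emerge at 2-3 leaf stage with 0.25% v/v non-ionic surfactant. Phytotoxicity was rated 14 days later on a 0 (no damage) to 100 (complete death) scale.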

[22] = tested on: upland rice (Oryza sp., var. Tebonnet, RICE); test: Pre-emerge test, crop safety; conditions: rating scale 0-100, 14 days after application
Summary of the method: (§3)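 Visual ratings on a 0-100 scale (0 no damage, 100 all plants dead) were taken at 14 days after treatment. Rates of 15-1000 g ai/ha in acetone, 187 l/ha, were sprayed onto soil one day after planting (pre-emerge) or onto 2-3 leaf plants with 0.25% v/v surfactant (post-emerge).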

[23] = tested on: field corn (Zea mays L., var. Dekalb 535, CORN); test: Pre-emerge test, crop safety; conditions: rating scale 0-100, 14 days after application
Summary of the method: as §3

CCCCCOC(=O)C(Cl)Cc1c(OC)c(Cl)cc(F)c1-n1c(=O)cc(C(F)(F)F)n(C)c1=O (single isomer, unassigned) [14-10]
Post-emerge Herbicidal Activity, phytotoxicity rating ABUTH ([1]; Rate 63 g ai/ha): 80
Post-emerge Herbicidal Activity, phytotoxicity rating ABUTH ([1]; Rate 250 g ai/ha): 100
Post-emerge Herbicidal Activity, phytotoxicity rating SORHA ([2]; Rate 63 g ai/ha): 20
Post-emerge Herbicidal Activity, phytotoxicity rating SORHA ([2]; Rate 250 g ai/ha): 50
Post-emerge Herbicidal Activity, phytotoxicity rating CHEAL ([3]; Rate 63 g ai/ha): 90
Post-emerge Herbicidal Activity, phytotoxicity rating CHEAL ([3]; Rate 250 g ai/ha): 100
Post-emerge Herbicidal Activity, phytotoxicity rating CASOB ([4]; Rate 63 g ai/ha): 80
Post-emerge Herbicidal Activity, phytotoxicity rating CASOB ([4]; Rate 250 g ai/ha): 90
Post-emerge Herbicidal Activity, phytotoxicity rating IPOHE ([5]; Rate 63 g ai/ha): 70
Post-emerge Herbicidal Activity, phytotoxicity rating IPOHE ([5]; Rate 250 g ai/ha): 80
Post-emerge Herbicidal Activity, phytotoxicity rating SETVI ([6]; Rate 63 g ai/ha): 50
Post-emerge Herbicidal Activity, phytotoxicity rating SETVI ([6]; Rate 250 g ai/ha): 90
Post-emerge Herbicidal Activity, phytotoxicity rating DIGSA ([7]; Rate 63 g ai/ha): 10
Post-emerge Herbicidal Activity, phytotoxicity rating DIGSA ([7]; Rate 250 g ai/ha): 100
Post-emerge Herbicidal Activity, phytotoxicity rating ECHCG ([8]; Rate 63 g ai/ha): 95
Post-emerge Herbicidal Activity, phytotoxicity rating ECHCG ([8]; Rate 250 g ai/ha): 100
Post-emerge Herbicidal Activity, phytotoxicity rating AMARE ([9]; Rate 63 g ai/ha): 90
Post-emerge Herbicidal Activity, phytotoxicity rating AMARE ([9]; Rate 250 g ai/ha): 100
Pre-emerge herbicidal activity, phytotoxicity rating ABUTH ([10]; 63 g ai/ha): 0
Pre-emerge herbicidal activity, phytotoxicity rating ABUTH ([10]; 250 g ai/ha): 90
Pre-emerge herbicidal activity, phytotoxicity rating SORHA ([11]; 63 g ai/ha): 0
Pre-emerge herbicidal activity, phytotoxicity rating SORHA ([11]; 250 g ai/ha): 30
Pre-emerge herbicidal activity, phytotoxicity rating CHEAL ([12]; 63 g ai/ha): 0
Pre-emerge herbicidal activity, phytotoxicity rating CHEAL ([12]; 250 g ai/ha): 100
Pre-emerge herbicidal activity, phytotoxicity rating AMBEL ([13]; 63 g ai/ha): 50
Pre-emerge herbicidal activity, phytotoxicity rating AMBEL ([13]; 250 g ai/ha): 100
Pre-emerge herbicidal activity, phytotoxicity rating CASOB ([14]; 63 g ai/ha): 0
Pre-emerge herbicidal activity, phytotoxicity rating CASOB ([14]; 250 g ai/ha): 0
Pre-emerge herbicidal activity, phytotoxicity rating IPOHE ([15]; 63 g ai/ha): 0
Pre-emerge herbicidal activity, phytotoxicity rating IPOHE ([15]; 250 g ai/ha): 70
Pre-emerge herbicidal activity, phytotoxicity rating SETVI ([16]; 63 g ai/ha): 0
Pre-emerge herbicidal activity, phytotoxicity rating SETVI ([16]; 250 g ai/ha): 0
Pre-emerge herbicidal activity, phytotoxicity rating DIGSA ([17]; 63 g ai/ha): 0
Pre-emerge herbicidal activity, phytotoxicity rating DIGSA ([17]; 250 g ai/ha): 90
Pre-emerge herbicidal activity, phytotoxicity rating ECHCG ([18]; 63 g ai/ha): 0
Pre-emerge herbicidal activity, phytotoxicity rating ECHCG ([18]; 250 g ai/ha): 0
Post-emerge phytotoxicity rating RICE (crop damage) ([19]; Rate 63 g ai/ha): 0
Post-emerge phytotoxicity rating RICE (crop damage) ([19]; Rate 250 g ai/ha): 20
Post-emerge phytotoxicity rating CORN (crop damage) ([20]; Rate 63 g ai/ha): 20
Post-emerge phytotoxicity rating CORN (crop damage) ([20]; Rate 250 g ai/ha): 60
Pre-emerge herbicidal activity, phytotoxicity rating AMARE ([21]; 63 g ai/ha): 100
Pre-emerge herbicidal activity, phytotoxicity rating AMARE ([21]; 250 g ai/ha): 100
Pre-emerge phytotoxicity rating, crop damage RICE ([22]; 63 g ai/ha): 20
Pre-emerge phytotoxicity rating, crop damage RICE ([22]; 250 g ai/ha): 30
Pre-emerge phytotoxicity rating, crop damage CORN ([23]; 63 g ai/ha): 0
Pre-emerge phytotoxicity rating, crop damage CORN ([23]; 250 g ai/ha): 40

CCCCCOC(=O)C(Cl)Cc1c(OC)c(Cl)cc(F)c1-n1c(=O)cc(C(F)(F)F)n(C)c1=O (single isomer, unassigned) [14-11]
Post-emerge Herbicidal Activity, phytotoxicity rating ABUTH ([1]; Rate 63 g ai/ha): 80
Post-emerge Herbicidal Activity, phytotoxicity rating ABUTH ([1]; Rate 250 g ai/ha): 100
Post-emerge Herbicidal Activity, phytotoxicity rating SORHA ([2]; Rate 63 g ai/ha): 50
Post-emerge Herbicidal Activity, phytotoxicity rating SORHA ([2]; Rate 250 g ai/ha): 99
Post-emerge Herbicidal Activity, phytotoxicity rating CHEAL ([3]; Rate 63 g ai/ha): 50
Post-emerge Herbicidal Activity, phytotoxicity rating CHEAL ([3]; Rate 250 g ai/ha): 100
Post-emerge Herbicidal Activity, phytotoxicity rating CASOB ([4]; Rate 63 g ai/ha): 50
Post-emerge Herbicidal Activity, phytotoxicity rating CASOB ([4]; Rate 250 g ai/ha): 70
Post-emerge Herbicidal Activity, phytotoxicity rating IPOHE ([5]; Rate 63 g ai/ha): 90
Post-emerge Herbicidal Activity, phytotoxicity rating IPOHE ([5]; Rate 250 g ai/ha): 100
Post-emerge Herbicidal Activity, phytotoxicity rating SETVI ([6]; Rate 63 g ai/ha): 80
Post-emerge Herbicidal Activity, phytotoxicity rating SETVI ([6]; Rate 250 g ai/ha): 100
Post-emerge Herbicidal Activity, phytotoxicity rating DIGSA ([7]; Rate 63 g ai/ha): 99
Post-emerge Herbicidal Activity, phytotoxicity rating DIGSA ([7]; Rate 250 g ai/ha): 100
Post-emerge Herbicidal Activity, phytotoxicity rating ECHCG ([8]; Rate 63 g ai/ha): 100
Post-emerge Herbicidal Activity, phytotoxicity rating ECHCG ([8]; Rate 250 g ai/ha): 100
Post-emerge Herbicidal Activity, phytotoxicity rating AMARE ([9]; Rate 63 g ai/ha): 95
Post-emerge Herbicidal Activity, phytotoxicity rating AMARE ([9]; Rate 250 g ai/ha): 100
Pre-emerge herbicidal activity, phytotoxicity rating ABUTH ([10]; 63 g ai/ha): 50
Pre-emerge herbicidal activity, phytotoxicity rating ABUTH ([10]; 250 g ai/ha): 100
Pre-emerge herbicidal activity, phytotoxicity rating SORHA ([11]; 63 g ai/ha): 0
Pre-emerge herbicidal activity, phytotoxicity rating SORHA ([11]; 250 g ai/ha): 0
Pre-emerge herbicidal activity, phytotoxicity rating CHEAL ([12]; 63 g ai/ha): 70
Pre-emerge herbicidal activity, phytotoxicity rating CHEAL ([12]; 250 g ai/ha): 100
Pre-emerge herbicidal activity, phytotoxicity rating AMBEL ([13]; 63 g ai/ha): 0
Pre-emerge herbicidal activity, phytotoxicity rating AMBEL ([13]; 250 g ai/ha): 100
Pre-emerge herbicidal activity, phytotoxicity rating CASOB ([14]; 63 g ai/ha): 0
Pre-emerge herbicidal activity, phytotoxicity rating CASOB ([14]; 250 g ai/ha): 0
Pre-emerge herbicidal activity, phytotoxicity rating IPOHE ([15]; 63 g ai/ha): 30
Pre-emerge herbicidal activity, phytotoxicity rating IPOHE ([15]; 250 g ai/ha): 50
Pre-emerge herbicidal activity, phytotoxicity rating SETVI ([16]; 63 g ai/ha): 0
Pre-emerge herbicidal activity, phytotoxicity rating SETVI ([16]; 250 g ai/ha): 50
Pre-emerge herbicidal activity, phytotoxicity rating DIGSA ([17]; 63 g ai/ha): 50
Pre-emerge herbicidal activity, phytotoxicity rating DIGSA ([17]; 250 g ai/ha): 100
Pre-emerge herbicidal activity, phytotoxicity rating ECHCG ([18]; 63 g ai/ha): 0
Pre-emerge herbicidal activity, phytotoxicity rating ECHCG ([18]; 250 g ai/ha): 0
Post-emerge phytotoxicity rating RICE (crop damage) ([19]; Rate 63 g ai/ha): 10
Post-emerge phytotoxicity rating RICE (crop damage) ([19]; Rate 250 g ai/ha): 20
Post-emerge phytotoxicity rating CORN (crop damage) ([20]; Rate 63 g ai/ha): 100
Post-emerge phytotoxicity rating CORN (crop damage) ([20]; Rate 250 g ai/ha): 100
Pre-emerge herbicidal activity, phytotoxicity rating AMARE ([21]; 63 g ai/ha): 100
Pre-emerge herbicidal activity, phytotoxicity rating AMARE ([21]; 250 g ai/ha): 100
Pre-emerge phytotoxicity rating, crop damage RICE ([22]; 63 g ai/ha): 0
Pre-emerge phytotoxicity rating, crop damage RICE ([22]; 250 g ai/ha): 0
Pre-emerge phytotoxicity rating, crop damage CORN ([23]; 63 g ai/ha): 0
Pre-emerge phytotoxicity rating, crop damage CORN ([23]; 250 g ai/ha): 0
